≈ marks a conversion by molar mass, not a printed value. Where two headings read alike, the source gives them in different places.
Tests used:
[1] = system: Staph. epidermidis; experiment: MIC, broth microdilution method (NCCLS M7-A5); assay type: cell-based
[2] = system: Strept. pneumoniae; experiment: MIC, broth microdilution method (NCCLS M7-A5); assay type: cell-based
[3] = system: Ent. gallinarum; experiment: MIC, broth microdilution method (NCCLS M7-A5); assay type: cell-based; settings: 4174 Ent. gallinarum
Method: Antimicrobial activity of the antibiotic 107891 was determined by the broth microdilution method according to the National Committee for Clinical Laboratory Standards recommendations (NCCLS, document M7-A5).
The strains used were clinical isolates or strains from American Type Culture Collection (ATCC).
Antibiotic 107891 was dissolved in DMSO to obtain a 1000 μg/ml stock solution, and subsequently diluted in water to obtain working solution. The media used were cation-adjusted Mueller Hinton broth (CAMHB) for Staphylococci, M. catarrhalis, Enterococci and L. monocytogenes; Todd Hewitt broth (THB) for Streptococci; GC medium+1% Isovitalex+1% haemine for Neisseria spp.; Brain Hearth Infusion+1% C supplement for H. influenzae; Lactobacillus broth for Lactobacilli; Middlebrook 7H9 with Middlebrook OADC enrichment for M. smegmatis; RPMI 1640 Medium for C. albicans. Wilkins Chalgren broth+oxyrase (1:25 v/v) for Clostridia; Brucella broth containing cisteine (0.5 g/L) for Propionibacteria. Inocula for bacteria were 10^5 CFU/ml. C. albicans inoculum was 1×10^4 CFU/ml. All the tests were performed in presence of 0.02% of bovine serum albumin (BSA). […] After 18-24 hours visual readings were performed and MICs determined. […]
Table VIII reports the antimicrobial activities of the individual Factors A1 and A2 of antibiotic 107891. MICs were determined by microbroth dilution method as above described.

[4] = system: Staph. aureus
[5] = system: Ent. faecalis
[6] = system: Ent. faecium
[7] = system: Neisseria meningitidis; settings: 1613 Neisseria meningitidis
[8] = system: Neisseria gonorrhaee; settings: 997 Neisseria gonorrhaee
[9] = system: Propionibacterium acnes; settings: 1016 Propionibacterium. acnes
[10] = 1400 Staphylococcus aureus cl. isol. Met r
[11] = 4341 Ent. faecalis VanB (first line, r17)
[12] = 4341 Ent. faecalis VanB (second line, r19)
[13] = 569 Enterococcus faecium cl. isol. Van A

| Compound | MIC ([2]; 3915 Strept. pneumoniae Pen-S) | MIC ([2]; 3919 Strept. pneumoniae Pen-R) | MIC [3] [µg/mL] | MIC ([4]; 819 Staph. aureus Met-S) | MIC [4, 10] [µg/mL] | MIC ([4]; 1524 Staph. aureus Met-R) | MIC ([4]; 2235 Staph. aureus Met-R) [µg/mL] | MIC [5] [µg/mL] | MIC ([5]; 4323 Ent. faecalis VanA) | MIC [5, 11] [µg/mL] | MIC [5, 12] [µg/mL] | MIC ([5]; 4397 Ent. faecalis VanB) [µg/mL] | MIC ([5]; J1 Ent. faecalis VanA) [µg/mL] | MIC ([6]; 3 Ent. faecium Van A) [µg/mL] | MIC ([6]; 4 Ent. faecium Van A) [µg/mL] | MIC [6, 13] [µg/mL] | MIC ([6]; 4339 Ent. faecium VanD) [µg/mL] | MIC ([6]; 6349 Ent. faecium Van A LNZ-R) [µg/mL] | MIC ([6]; A8 Ent. faecium Van A) [µg/mL] | MIC ([6]; D561 Ent. faecium Van A) [µg/mL] | also measured |
| --- | --- | --- | --- | --- | --- | --- | --- | --- | --- | --- | --- | --- | --- | --- | --- | --- | --- | --- | --- | --- | --- |
| C=C1NC(=O)C(Cc2c[nH]c3ccc(Cl)cc23)NC(=O)C(NC(=O)C(=CC)NC(=O)C(N)C(C)C)CSCC(C(=O)NC2C(=O)N3CCCC3C(=O)NCC(=O)NC(C(=O)NC(C(=O)NC3CSCC4NC(=O)C(CC(N)=O)NC(=O)C(CSCC5NC(=O)C(Cc6ccccc6)NC(=O)C(CS/C=C\NC5=O)NC4=O)NC(=O)CNC(=O)CNC(=O)CNC(=O)C4C(O)C(O)CN4C3=O)C(C)O)CSC2C)NC(=O)C(CC(C)C)NC1=O (centres unmarked) [Factor A1] | ≦0.0015 μg/ml | ≦0.0015 μg/ml | 1 (≈ 0.445 µM) | ≦0.03 μg/ml | 0.13 (≈ 0.0578 µM) | ≦0.03 μg/ml | 0.06 (≈ 0.0267 µM) | 1 (≈ 0.445 µM) | ≦0.03 μg/ml | 0.5 (≈ 0.222 µM) | 2 (≈ 0.889 µM) | 1 (≈ 0.445 µM) | 1 (≈ 0.445 µM) | 0.5 (≈ 0.222 µM) | 1 (≈ 0.445 µM) | 1 (≈ 0.445 µM) | 0.25 (≈ 0.111 µM) | 2 (≈ 0.889 µM) | 0.5 (≈ 0.222 µM) | 2 (≈ 0.889 µM) | MIC ([1]; 3894 Staph. epidermidis Met-R): ≦0.03 μg/ml; MIC [7]: 0.25 µg/mL (≈ 0.111 µM); MIC [8]: 0.5 µg/mL (≈ 0.222 µM); MIC [9]: <0.03 µg/mL |
| C=C1NC(=O)C(Cc2c[nH]c3ccc(Cl)cc23)NC(=O)C(NC(=O)C(=CC)NC(=O)C(N)C(C)C)CSCC(C(=O)NC2C(=O)N3CCCC3C(=O)NCC(=O)NC(C(=O)NC(C(=O)NC3CSCC4NC(=O)C(CC(N)=O)NC(=O)C(CSCC5NC(=O)C(Cc6ccccc6)NC(=O)C(CS/C=C\NC5=O)NC4=O)NC(=O)CNC(=O)CNC(=O)CNC(=O)C4CC(O)CN4C3=O)C(C)O)CSC2C)NC(=O)C(CC(C)C)NC1=O (centres unmarked) [Factor A2] | ≦0.0015 μg/ml | ≦0.0015 μg/ml | 1 (≈ 0.448 µM) | ≦0.03 μg/ml | 0.13 (≈ 0.0582 µM) | ≦0.03 μg/ml | 0.06 (≈ 0.0269 µM) | 2 (≈ 0.896 µM) | ≦0.03 μg/ml | 0.5 (≈ 0.224 µM) | 2 (≈ 0.896 µM) | 1 (≈ 0.448 µM) | 1 (≈ 0.448 µM) | 0.5 (≈ 0.224 µM) | 1 (≈ 0.448 µM) | 2 (≈ 0.896 µM) | 0.25 (≈ 0.112 µM) | 2 (≈ 0.896 µM) | 0.5 (≈ 0.224 µM) | 2 (≈ 0.896 µM) | MIC ([1]; 3881 Staph. epidermidis Met-R): ≦0.03 μg/ml; MIC ([6]; 568 Enterococcus faecium cl. isol.): 2 µg/mL (≈ 0.896 µM); MIC [7]: 0.25 µg/mL (≈ 0.112 µM); MIC [8]: 0.25 µg/mL (≈ 0.112 µM); MIC [9]: 0.06 µg/mL (≈ 0.0269 µM) |
| C=C1NC(=O)[C@H](Cc2c[nH]c3ccc(Cl)cc23)NC(=O)[C@H](NC(=O)/C(=C/C)NC(=O)[C@@H](N)C(C)C)CSC[C@@H](C(=O)N[C@H]2C(=O)N3CCC[C@H]3C(=O)NCC(=O)N[C@H](C(=O)N[C@H](C(=O)N[C@@H]3CSC[C@@H]4NC(=O)[C@H](CC(N)=O)NC(=O)[C@@H](CSC[C@@H]5NC(=O)[C@H](Cc6ccccc6)NC(=O)[C@@H](CS/C=C\NC5=O)NC4=O)NC(=O)CNC(=O)CNC(=O)CNC(=O)[C@@H]4CCCN4C3=O)[C@@H](C)O)CS[C@H]2C)NC(=O)[C@H](CC(C)C)NC1=O [MF-BA-1768α1, reference compound] | – | – | – | – | – | – | – | 4 (≈ 1.8 µM) | – | – | – | – | – | – | – | – | – | – | – | – | – |

Reference: patent US7351687B2, “Antibiotic 107891, its factors A1 and A2, pharmaceutically acceptable salts and compositions, and use thereof” (priority 2003, dated 2008)
